Measurements: ChEMBL document CHEMBL3864140, “Melanogenesis inhibitory activity of a 7-O-9'-linked neolignan from Alpinia galanga fruit” (Bioorg Med Chem, 2016)
pIC50: −log10 of the molar value.

How the values were obtained:
[1] = Antimelanogenic activity in theophylline-stimulated mouse B16-4A5 cells assessed as inhibition of melanogenesis at 300 uM after 72 hrs relative to control; assay type: functional; conditions: B16-4A5, 72 h
[2] = Antimelanogenic activity in theophylline-stimulated mouse B16-4A5 cells assessed as inhibition of melanogenesis at 1000 uM after 72 hrs relative to control; assay type: functional; conditions: B16-4A5, 72 h
[3] = Cytotoxicity against theophylline-stimulated mouse B16-4A5 cells assessed as cell viability at 30 uM after 72 hrs by MTT assay relative to control; assay type: toxicity; conditions: theophylline-stimulated B16-4A5 cells, read-out: Activity
[4] = Cytotoxicity against theophylline-stimulated mouse B16-4A5 cells assessed as cell viability at 100 uM after 72 hrs by MTT assay relative to control; assay type: toxicity; conditions: theophylline-stimulated B16-4A5 cells, read-out: Activity
[5] = Cytotoxicity against theophylline-stimulated mouse B16-4A5 cells assessed as cell viability at 300 uM after 72 hrs by MTT assay relative to control; assay type: toxicity; conditions: theophylline-stimulated B16-4A5 cells, read-out: Activity
[6] = Cytotoxicity against theophylline-stimulated mouse B16-4A5 cells assessed as cell viability at 1000 uM after 72 hrs by MTT assay relative to control; assay type: toxicity; conditions: theophylline-stimulated B16-4A5 cells, read-out: Activity
[7] = cells; conditions: Mus musculus, B16-4A5, 72 h, read-out: INH
Description: Antimelanogenic activity in theophylline-stimulated mouse B16-4A5 cells assessed as inhibition of melanogenesis at 30 uM after 72 hrs relative to control

[8] = cells; conditions: Mus musculus, B16-4A5, 72 h, read-out: INH; remark: listed apart in the source
[9] = Antimelanogenic activity in theophylline-stimulated mouse B16-4A5 cells assessed as inhibition of melanogenesis at 0.3 uM after 72 hrs relative to control; assay type: functional; conditions: B16-4A5, 72 h
[10] = Antimelanogenic activity in theophylline-stimulated mouse B16-4A5 cells assessed as inhibition of melanogenesis at 1 uM after 72 hrs relative to control; assay type: functional; conditions: B16-4A5, 72 h
[11] = Antimelanogenic activity in theophylline-stimulated mouse B16-4A5 cells assessed as inhibition of melanogenesis at 3 uM after 72 hrs relative to control; assay type: functional; conditions: B16-4A5, 72 h
[12] = Antimelanogenic activity in theophylline-stimulated mouse B16-4A5 cells assessed as inhibition of melanogenesis at 10 uM after 72 hrs relative to control; assay type: functional; conditions: B16-4A5, 72 h
[13] = Antimelanogenic activity in theophylline-stimulated mouse B16-4A5 cells assessed as inhibition of melanogenesis after 72 hrs relative to control; assay type: functional, cell-based
[14] = Cytotoxicity against theophylline-stimulated mouse B16-4A5 cells assessed as cell viability at 0.3 uM after 72 hrs by MTT assay relative to control; assay type: toxicity; conditions: theophylline-stimulated B16-4A5 cells, read-out: Activity
[15] = Cytotoxicity against theophylline-stimulated mouse B16-4A5 cells assessed as cell viability at 1 uM after 72 hrs by MTT assay relative to control; assay type: toxicity; conditions: theophylline-stimulated B16-4A5 cells, read-out: Activity
[16] = Cytotoxicity against theophylline-stimulated mouse B16-4A5 cells assessed as cell viability at 3 uM after 72 hrs by MTT assay relative to control; assay type: toxicity; conditions: theophylline-stimulated B16-4A5 cells, read-out: Activity
[17] = Cytotoxicity against theophylline-stimulated mouse B16-4A5 cells assessed as cell viability at 10 uM after 72 hrs by MTT assay relative to control; assay type: toxicity; conditions: theophylline-stimulated B16-4A5 cells, read-out: Activity
[18] = Potency index, ratio of arbutin IC50 to compound IC50 for antimelanogenic activity in mouse B16-4A5 cells; assay type: functional
[19] = Downregulation of tyrosinase expression in theophylline-stimulated mouse B16-4A5 cells assessed as ratio of tyrosinase mRNA expression to beta-actin mRNA expression at 3 uM after 72 hrs by qRT-PCR analysis (reference value: […] +/- […]); assay type: functional, cell-based
[20] = Downregulation of tyrosinase expression in theophylline-stimulated mouse B16-4A5 cells assessed as ratio of tyrosinase mRNA expression to beta-actin mRNA expression at 10 uM after 72 hrs by qRT-PCR analysis (reference value: […] +/- […]); assay type: functional, cell-based
[21] = Downregulation of TRP1 expression in theophylline-stimulated mouse B16-4A5 cells assessed as ratio of TRP1 mRNA expression to beta-actin mRNA expression at 3 uM after 72 hrs by qRT-PCR analysis (reference value: […] +/- […]); assay type: functional, cell-based
[22] = Downregulation of TRP1 expression in theophylline-stimulated mouse B16-4A5 cells assessed as ratio of TRP1 mRNA expression to beta-actin mRNA expression at 10 uM after 72 hrs by qRT-PCR analysis (reference value: […] +/- […]); assay type: functional, cell-based
[23] = Downregulation of TRP2 expression in theophylline-stimulated mouse B16-4A5 cells assessed as ratio of TRP2 mRNA expression to beta-actin mRNA expression at 3 uM after 72 hrs by qRT-PCR analysis (reference value: […] +/- […]); assay type: functional, cell-based
[24] = Downregulation of TRP2 expression in theophylline-stimulated mouse B16-4A5 cells assessed as ratio of TRP2 mRNA expression to beta-actin mRNA expression at 10 uM after 72 hrs by qRT-PCR analysis (reference value: […] +/- […]); assay type: functional, cell-based

Compound | inhibition at 0.3 µM [9] | inhibition at 1 µM [10] | inhibition at 3 µM [11] | inhibition at 10 µM [12] | pIC50 [13] | viability at 72 h, 0.3 µM [14] | viability at 72 h, 1 µM [15] | viability at 72 h, 3 µM [16] | viability at 72 h, 10 µM [17] | Ratio IC50 [18] | Ratio [19] | Ratio [20] | Ratio [21] | Ratio [22] | Ratio [23] | Ratio [24] | other results
OC[C@H]1O[C@@H](Oc2ccc(O)cc2)[C@H](O)[C@@H](O)[C@@H]1O [ARBUTIN] |  |  |  |  |  |  |  |  |  |  |  |  |  |  |  |  | inhibition at 300 µM [1]: 61.5%; inhibition at 1000 µM [2]: 83.7%; viability at 72 h, 30 µM [3]: 82.4%; viability at 72 h, 100 µM [4]: 78.1%; viability at 72 h, 300 µM [5]: 79.8%; viability at 72 h, 1000 µM [6]: 53.1%; inhibition at 30 µM [7]: 20.4%; inhibition at 100 µM [8]: 38.1%
C=C[C@H](OC(C)=O)c1ccc(OC(C)=O)c(OC)c1 | -4.9% | 15.3% | 16.8% | 84.4% | 5.25 | 92% | 105% | 101% | 42.3% | >25 - 70 | 1.1 | 0.8 | 0.52 | 0.29 | 0.89 | 0.88 | 
C=C[C@H](OC(C)=O)c1ccc(OC(C)=O)cc1 [1'-ACETOXYCHAVICOL ACETATE] | 9.3% | 6.2% | 29.8% | 73.1% | 5.30 | 103% | 102% | 99.9% | 99.9% | >25 - 70 | 1 | 0.49 | 0.86 | 0.5 | 1.08 | 0.34 | 
